Experimental data from the NIST ThermoML archive (doi:10.1016/j.jct.2012.01.002).
Where “and” joins values, the source holds several entries; their conditions need not be identical. Identical values can stand only once.

Key:
[1] = xn = mol fraction of the nth substance listed; conditions: 101 kPa, Liquid, Vibrating tube method
[2] = 101.33 kPa, Liquid, Vibrating tube method

CCCCCCCC[N+](C)(CCCCCCCC)CCCCCCCC.O=S(=O)([N-]S(=O)(=O)C(F)(F)F)C(F)(F)F + CCOC(C)=O
mass density, [1]
Conditions	x1 = 0.1167	x1 = 0.2291	x1 = 0.4417	x1 = 0.5433	x1 = 0.7037	x1 = 0.7993	x1 = 0.9209
298.15 K	848.1 kg/m3 and 989.9 kg/m3	1034.5 kg/m3	1074.7 kg/m3	1085.4 kg/m3	1096.7 kg/m3	1101.3 kg/m3	1105.4 kg/m3
303.15 K	984.9 kg/m3	1029.5 kg/m3	1069.6 kg/m3	1080.3 kg/m3	1091.5 kg/m3	1096.2 kg/m3	1100.5 kg/m3
313.15 K	974.9 kg/m3	1020.9 kg/m3	1062.5 kg/m3	1073.4 kg/m3	1085 kg/m3	1089.6 kg/m3	1062.5 kg/m3 and 1094.1 kg/m3

CCOC(C)=O [ethyl acetate] + CCCCO
mass density [kg/m3], [1]
Conditions	298.15 K	303.15 K	313.15 K
x2 = 0.0904	886.5	880.4	869.6
x2 = 0.1337	882.3	876.8	866
x2 = 0.2525	871.5	866.7	856.6
x2 = 0.3723	860.7	856.6	846.8
x2 = 0.4807	851	847.5	838
x2 = 0.5955	840.9	838	828.8
x2 = 0.7032	831.5	828.8	820.1
x2 = 0.8009	823	820.6	812.3
x2 = 0.8916	815.1	813	805
x2 = 0.9641	808.6	806.7	799.4
x2 = 0.9795	807.3	805.3	798.1

CCC(C)O (centres undefined) [butan-2-ol] + CCOC(C)=O
mass density [kg/m3], [1]
Conditions	298.15 K	303.15 K	313.15 K
x1 = 0.0603	888.5	882.5	870.2
x1 = 0.1109	883.2	877.6	865.6
x1 = 0.1511	878.9	873.2	861.4
x1 = 0.1998	873.8	868.6	857.1
x1 = 0.2502	868.8	863.5	852.5
x1 = 0.302	863.6	858.4	847.5
x1 = 0.3489	858.9	853.9	843.2
x1 = 0.3988	854.1	849.2	838.7
x1 = 0.4506	849.4	844.4	834.3
x1 = 0.5011	844.6	839.9	829.9
x1 = 0.5631	839	834.3	824.5
x1 = 0.601	835.6	830.9	821.2
x1 = 0.6501	831.1	826.8	817.3
x1 = 0.7032	826.5	822.4	812.9
x1 = 0.752	822.5	818.3	808.9
x1 = 0.8012	818.4	814	805.1
x1 = 0.8498	814.6	810.1	801.4
x1 = 0.9028	810.3	805.8	797.4
x1 = 0.9519	806.7	802.4	794.4

CCCCCCCC[N+](C)(CCCCCCCC)CCCCCCCC.O=S(=O)([N-]S(=O)(=O)C(F)(F)F)C(F)(F)F + CC(C)O
mass density [kg/m3], [1]
Conditions	x1 = 0.053	x1 = 0.1	x1 = 0.2045	x1 = 0.2841	x1 = 0.3934	x1 = 0.4824	x1 = 0.5896	x1 = 0.7066	x1 = 0.7967	x1 = 0.896
298.15 K	876.9	932.6	1004.9	1033.8	1056.2	1067.6	1078.9	1089	1095.2	1100.5
303.15 K	873	928.9	1001.5	1030.3	1052.6	1063.9	1075.2	1085.4	1091.6	1096.9
313.15 K	865.1	921.3	994.7	1023.3	1045.1	1056.6	1068.1	1078.3	1084.4	1089.5

CCCCCCCC[N+](C)(CCCCCCCC)CCCCCCCC.O=S(=O)([N-]S(=O)(=O)C(F)(F)F)C(F)(F)F + CCCCO
mass density [kg/m3], [1]
Conditions	x1 = 0.0654	x1 = 0.1421	x1 = 0.2623	x1 = 0.3284	x1 = 0.4437	x1 = 0.5343	x1 = 0.6385	x1 = 0.7397	x1 = 0.8432	x1 = 0.9195
298.15 K	898.1	962	1018	1037.3	1060.4	1072.8	1083.4	1091	1097.9	1102.1
303.15 K	894.3	958.6	1014.6	1033.9	1056.8	1069.1	1079.8	1087.4	1094.2	1098.6
313.15 K	887.2	951.8	1007.6	1026.9	1049.7	1062.1	1072.7	1080.5	1087.2	1091.6

CCCCCCCC[N+](C)(CCCCCCCC)CCCCCCCC.O=S(=O)([N-]S(=O)(=O)C(F)(F)F)C(F)(F)F + CCC(C)O
mass density [kg/m3], [1]
Conditions	x1 = 0.0654	x1 = 0.1397	x1 = 0.2623	x1 = 0.3282	x1 = 0.4054	x1 = 0.5045	x1 = 0.6051	x1 = 0.7046	x1 = 0.808	x1 = 0.9067
298.15 K	894.2	956.2	1013.8	1033.4	1050.6	1066.7	1078.5	1087.3	1094.6	1100.8
303.15 K	890.3	952.7	1010.2	1029.7	1046.9	1063	1074.8	1083.7	1091	1097.2
313.15 K	882.6	945.3	1003.1	1022.5	1039.7	1055.7	1067.6	1076.5	1083.9	1090

CCCCCCCC[N+](C)(CCCCCCCC)CCCCCCCC.O=S(=O)([N-]S(=O)(=O)C(F)(F)F)C(F)(F)F
[2]
Conditions	mass density [kg/m3]
298.15 K	1106.9
303.15 K	1103.2
313.15 K	1095.7
